The values below come from the OligoGym collection.

Several values for one entry are separate records, joined by “and”; a condition that tells them apart may be missing. Equal values may be shown once. After the bases stand the sugars from the 5' end (letter, count) and the backbone: PS all phosphorothioate, else s phosphorothioate and o phosphodiester by linkage. Methylation of C is not given here. e = 2'-O-(2-methoxyethyl) (MOE); k = constrained ethyl (cEt); d = 2'-deoxy (DNA)

One data set addresses MALAT1. Particulars: ASO, A431, 0.005 µM.
In the case of TCTCGGGCTGCAGGCT (sugars k3 d10 k3, PS), the target mRNA inhibition amounted to 20%.
Turning to TAAACCTGTGGTGGTC (sugars k3 d10 k3, PS), the target mRNA inhibition was 30%.
Still for that read-out and setting: the result for ACAAACTGCTTACAGA (sugars k3 d10 k3, PS) reads 17%; that for GTTATGCCTGGTTAGG (sugars k3 d10 k3, PS), 16%.
In the case of TCATCTCAACCTCCGT (sugars k3 d10 k3, PS), the target mRNA inhibition was 57% and 49%.
The same measure, in the same setting: next, CTAGGGAAAAGTGGTT (sugars k3 d10 k3, PS): -22%; CTACTGAAGAGCATTG (sugars k3 d10 k3, PS): 22%.
Same read-out and setting: next, AAGATGCTAGCTTGGC (sugars k3 d10 k3, PS): 24%.
Same read-out and setting: the result for CATGAGTTTATCTGCA (sugars k3 d10 k3, PS) reads -6%; that for GCTTAAGAGGGCAGGA (sugars k3 d10 k3, PS), -7%.
In the case of ACACTTCTCTTGACCT (sugars k3 d10 k3, PS), the target mRNA inhibition is 60% and 44% and 50%.
On the same count and under the same terms, next, TACTCTGATCATAATC (sugars k3 d10 k3, PS): 17%; TCTGGAAAAGCTAGGG (sugars k3 d10 k3, PS): -21%.
Same read-out and setting: next, GTCCTTTTAGTAGCTT (sugars k3 d10 k3, PS): 50% and 72%.
The same measure, in the same setting: next, GTGAGAACTGCTCTAG (sugars k3 d10 k3, PS): 36%; AACATATTTTGCCCCC (sugars k3 d10 k3, PS): 22%.
For the sequence AAGCCAAGCCGCCTGC (sugars k3 d10 k3, PS), the target mRNA inhibition is 29%.
Same read-out and setting: next, GAAGAGATACCTGTCT (sugars k3 d10 k3, PS): -22%; CCCAAATTAATGCACT (sugars k3 d10 k3, PS): 51% and 42%; CATTAAGTTGGTAATT (sugars k3 d10 k3, PS): 12%.
Still for that read-out and setting: the result for TTTAACTTCCCCCAGC (sugars k3 d10 k3, PS) reads -2%; that for CCGCTAAGATGCTAGC (sugars k3 d10 k3, PS), 20%.
Same read-out and setting: next, AGTGTTTACACTGCTC (sugars k3 d10 k3, PS): 22%; GCTGGTTATGACTCAG (sugars k3 d10 k3, PS): 9%; TAGTGGTTCCCAATCC (sugars k3 d10 k3, PS): 14%.
In the case of GAGGCTGACACTTCTC (sugars k3 d10 k3, PS), the target mRNA inhibition is -10%.
Still for that read-out and setting: the result for TTAAGACCAAGGGAGG (sugars k3 d10 k3, PS) reads 29%; that for CACCCTCTAAGAGACA (sugars k3 d10 k3, PS), 1%; that for TCATCAAACACCTCAC (sugars k3 d10 k3, PS), -8%.
The same measure, in the same setting: the result for AACTAAATCATTGGGA (sugars k3 d10 k3, PS) reads -1%; that for TTGGCACACTGGCATG (sugars k3 d10 k3, PS), 24%; that for TTTTAGCAGTAACATC (sugars k3 d10 k3, PS), 34%.
On to ACTATATTTAAGGCCT (sugars k3 d10 k3, PS), for which the target mRNA inhibition came out at 40%.
The same measure, in the same setting: the result for CCCCAACTGCTTGCAG (sugars k3 d10 k3, PS) reads 13%; that for TATTCTTTTCTTCGCC (sugars k3 d10 k3, PS), 49%; that for CTTTCATAGAGCCTTC (sugars k3 d10 k3, PS), 43%.
As to AGAAACCTACAACACC (sugars k3 d10 k3, PS), the target mRNA inhibition is -6%.
Same read-out and setting: the result for CAACAATTTAGAGCTT (sugars k3 d10 k3, PS) reads 12%; that for CACTCCCAATTAATCT (sugars k3 d10 k3, PS), 8%; that for GAGTTTGAGTGGTTTT (sugars k3 d10 k3, PS), 26%.
TCTGTGCTAGATCAAA (sugars k3 d10 k3, PS): the target mRNA inhibition was 61%.
For CACACTGGCATGCTGG (sugars k3 d10 k3, PS), the target mRNA inhibition worked out at 9%.
The same measure, in the same setting: next, CGGCCCGCACGGAAAT (sugars k3 d10 k3, PS): 24%.
Same read-out and setting: the result for ATCCCTAACATGCAAT (sugars k3 d10 k3, PS) reads 23%; that for GTAGGTATAGTTTACC (sugars k3 d10 k3, PS), 39%.
The same measure, in the same setting: next, CATTTATTTCGGCTTC (sugars k3 d10 k3, PS): 66% and 90%; AACATTTGGCCTACTC (sugars k3 d10 k3, PS): 42%.
Take TGGCCTACTCAAGCTC (sugars k3 d10 k3, PS): the target mRNA inhibition was -8%.
On the same count and under the same terms, the result for TCATATTTTAAACGGG (sugars k3 d10 k3, PS) reads 23%; that for GAACCACAACAATTTA (sugars k3 d10 k3, PS), 19%.
Same read-out and setting: next, ATGGATCATGCCCACA (sugars k3 d10 k3, PS): 12%.
On the same count and under the same terms, the result for GGGTTATGCTTATTCC (sugars k3 d10 k3, PS) reads 28%; that for AGCTACTTAGCTGTGG (sugars k3 d10 k3, PS), 34%; that for GTGTTATGCCTGGTTA (sugars k3 d10 k3, PS), 2%.
CCCAAAAGCCCTCTCA (sugars k3 d10 k3, PS): the target mRNA inhibition was found to be 12%.

Another data set has as its target SOD1. Particulars: ASO, A431, 0.12 µM.
Take “CAGTGTTTAATGTTTA (sugars kekeddddddddekek, linkages s1 o3 s8 o1 s2)”: the target mRNA inhibition is 19%.

Still in this data set, the particulars now being: ASO, A431, 0.6 µM.
As for “CAGTGTTTAATGTTTA (sugars kekeddddddddekek, linkages s1 o3 s8 o1 s2)”, the target mRNA inhibition was 18%.

Still in this data set, the particulars now being: ASO, A431, 3 µM.
Turning to “CAGTGTTTAATGTTTA (sugars kekeddddddddekek, linkages s1 o3 s8 o1 s2)”, the target mRNA inhibition was 36%.

The data set is the same for the next values; noted with them: ASO, A431, 15 µM.
For the sequence “CAGTGTTTAATGTTTA (sugars kekeddddddddekek, linkages s1 o3 s8 o1 s2)”, the target mRNA inhibition came out at 55%.

The data set is the same for the next values; noted with them: ASO, HepG2, 0.1875 µM.
Turning to “AATGTTTATCAGGATAC (sugars e2 k2 d9 k2 e2, PS)”, the target mRNA inhibition is 43%.
Same read-out and setting: the result for “TTCTACAGCTAGCAGGA (sugars e2 k2 d9 k2 e2, PS)” reads 10%.

Still in this data set, the particulars now being: ASO, HepG2, 0.222 µM.
With “CAGTGTTTAATGTTTA (sugars kekeddddddddekek, linkages s1 o3 s8 o1 s2)”, the target mRNA inhibition is 50%.

The data set is the same for the next values; noted with them: ASO, HepG2, 0.667 µM.
Take “CAGTGTTTAATGTTTA (sugars kekeddddddddekek, linkages s1 o3 s8 o1 s2)”: the target mRNA inhibition came to 67%.

Still in this data set, the particulars now being: ASO, HepG2, 0.75 µM.
For “AATGTTTATCAGGATAC (sugars e2 k2 d9 k2 e2, PS)”, the target mRNA inhibition is 75%.
On the same count and under the same terms, the result for “TTCTACAGCTAGCAGGA (sugars e2 k2 d9 k2 e2, PS)” reads 57%.

Staying with this data set, now noted: ASO, HepG2, 2 µM.
In the case of “CAGTGTTTAATGTTTA (sugars kekeddddddddekek, linkages s1 o3 s8 o1 s2)”, the target mRNA inhibition came out at 81%.

Still in this data set, the particulars now being: ASO, HepG2, 3 µM.
Consider “TTCCACCTTTGCCCAAG (sugars e3 k2 d7 k2 e3, PS)”, for which the target mRNA inhibition amounted to 87%.
On the same count and under the same terms, next, “ATAAAACTATACAAATC (sugars e3 k2 d7 k2 e3, PS)”: 14%; “TAAAGTGAGGACCTGCA (sugars e3 k2 d7 k2 e3, PS)”: 19%.
The same measure, in the same setting: the result for “AGTCTGGCAAAATACAG (sugars e3 k2 d7 k2 e3, PS)” reads 1%; that for “AATGTTTATCAGGATAC (sugars e2 k2 d9 k2 e2, PS)”, 91%.
Same read-out and setting: next, “TTCTACAGCTAGCAGGA (sugars e2 k2 d9 k2 e2, PS)”: 84%; “TTGGGCGATCCCAATTA (sugars e3 k2 d7 k2 e3, PS)”: 26%.
For “GTCCATTACTTTCCTTC (sugars e3 k2 d7 k2 e3, PS)”, the target mRNA inhibition is 33%.
On the same count and under the same terms, the result for “TCTGGCAAAATACAGGT (sugars e3 k2 d7 k2 e3, PS)” reads 0%; that for “ACAGCTAGCAGGATAAC (sugars e3 k2 d7 k2 e3, PS)”, 20%.
As to “TTTTAGTTTGAATTTGG (sugars e3 k2 d7 k2 e3, PS)”, the target mRNA inhibition worked out at 12%.

Still in this data set, the particulars now being: ASO, HepG2, 4 µM.
Take “CAGCTAGCAGGATAACA (sugars e2 k2 d9 k2 e2, PS)”: the target mRNA inhibition amounted to 61%.
As to “AATGTTTATCAGGATAC (sugars e2 k2 d9 k2 e2, PS)”, the target mRNA inhibition came out at 90%.
Same read-out and setting: the result for “TTCTACAGCTAGCAGGA (sugars e2 k2 d9 k2 e2, PS)” reads 79%; that for “GCCACGCCGAGGTCCTGGTT (sugars e5 d10 e5, PS)”, 38%; that for “TTTAATGCTTCCCCACACCT (sugars e5 d10 e5, PS)”, 15%.
Still for that read-out and setting: next, “TTATCAGGATACATTTC (sugars e2 k2 d9 k2 e2, PS)”: 67%; “AATGTTTATTGGGCGAT (sugars e2 k2 d9 k2 e2, PS)”: 64%.
For “AATTACACCACAAGCCA (sugars e2 k2 d9 k2 e2, PS)”, the target mRNA inhibition stood at 56%.
For “GGGCCTCAGACTACATC (sugars e2 k2 d9 k2 e2, PS)”, the target mRNA inhibition amounted to 58%.
Still for that read-out and setting: next, “CGATCCCAATTACACCA (sugars e2 k2 d8 k2 e3, PS)”: 57%.

Still in this data set, the particulars now being: ASO, HepG2, 5 µM.
In the case of “GTGATTTAAGTCTGGCA (sugars e2 k2 d9 k2 e2, PS)”, the target mRNA inhibition was determined as 69%.
Still for that read-out and setting: next, “ATCAGTTTCTCACTACA (sugars e2 k2 d9 k2 e2, PS)”: 44%; “GTCTGGCAAAATACAGG (sugars e2 k2 d9 k2 e2, PS)”: 38%; “CCATACAGGGTTTTTAT (sugars e2 k2 d8 k2 e3, PS)”: 13%.
For “TTTGTCAGCAGTCACATTGC (sugars e5 d10 e5, PS)”, the target mRNA inhibition was 26% and 16%.
Still for that read-out and setting: next, “CACTTTTAAGATTACAG (sugars e2 k2 d8 k2 e3, PS)”: 37%.
Still for that read-out and setting: next, “TCTGAAAAAGTCACACAATT (sugars e5 d10 e5, PS)”: 5%.
The same measure, in the same setting: next, “GTCTCCTGAGAGTGAGATCA (sugars e5 d10 e5, PS)”: 23%; “TGTCAGCAGTCACATTGCCC (sugars e5 d10 e5, PS)”: 55% and 49%; “ACACTTTTAAGATTACAGTG (sugars e5 d10 e5, PS)”: 15%.
On to “GGCCAATGATGCAATGGTCT (sugars e5 d10 e5, PS)”, for which the target mRNA inhibition turned out to be 9%.

The data set is the same for the next values; noted with them: ASO, HepG2, 6 µM.
Take “CAGTGTTTAATGTTTA (sugars kekeddddddddekek, linkages s1 o3 s8 o1 s2)”: the target mRNA inhibition stood at 86%.

The data set is the same for the next values; noted with them: ASO, HepG2, 12 µM.
Consider “AATGTTTATCAGGATAC (sugars e2 k2 d9 k2 e2, PS)”, for which the target mRNA inhibition amounted to 97%.
Same read-out and setting: the result for “TTCTACAGCTAGCAGGA (sugars e2 k2 d9 k2 e2, PS)” reads 94%.
